# Results: paper PMC6826616, “Topical 2′-Hydroxyflavanone for Cutaneous Melanoma” (Cancers, 2019)
# Key:
# [1] = system: SK-MEL-24 cells; assay: Western blot densitometry of whole-cell lysates, SK-MEL-24; assay type: cell-based, human; settings: 48 h
# Experimental: Supplemental data for Fig. 2C. Caspase 9
# Numbers below of each blot represent protein 1.0 1.2 0.5 ND ND ND ND ND ND band intensity ratios to adequate controls after Procaspase 3 […]
# RAL BP- 1 and apoptosis enzymes in SK-Mel-24, B16F0 17kD Active caspase 3 […]
# 48h. Cells were plated in complete growth medium. After overnight, cells were treated with different doses of 2HF, and PARP-1 incubated for 48h. Total cell lysates (40 µg/lane) were […]
# buffer. Proteins were transferred to nitrocellulose C-terminal cleaved membrane, nonspecific binding was done in 1X clear milk, PARP~89kDa
# +0.1%T20 (Invitrogen) for 1h at room temperature. All primary antibodies were from (mouse monoclonal, 1.0 0.8 0.9 1.0 0.9 ND 1.0 1.1 ND Santacruze Biotechnology (1:1000), in 1X clear milk
# +0.1%T20 overnight in 40C. Secondary antibody from N-terminal cleaved
# Santacruze Biotech (1:2000) for 1h at room temperature in PARP~24kDa […]
# Supplemental Figure 7 Supplemental data for Fig. 5.
# B16F0 SK-Mel- 24 B16F10Numbers below of each blot represent protein band intensity ratios to adequate
# TNF-α Full blots are presented in next 4 figures. […]
# cells after treatment with 50, 100 µM 2HF for 48h.
# Raf-1 Raf-1 Cells were plated in complete growth medium. After overnight, cells were treated with different doses of 2HF, […]
# loaded on 4- 12% bis-tris gel, with 1X MES gel running p-MEK-1 p-MEK-1 buffer. Proteins were transferred to nitrocellulose membrane, nonspecific binding was done in 1X clear
# All primary antibodies were from (mouse monoclonal, MEKK15 MEKK15 except TNF-α (American Hamster), Santacruze
# 1.0 0.9 0.1 ND ND ND overnight in 40C. Secondary antibody from Santacruze Biotech (1:2000) for 1h at room temperature in 1X clear […]
# [2] = system: B16-F0 cells; assay: EGF-pHrodo endocytosis, B16-F0 (microscopy and flow cytometry); assay type: cell-based, mouse; settings: Rlip-antisense, Rlip-shRNA, or 10 µM 2HF for 24 h
# Experimental: Figure 3 Effects of Rlip depletion on epidermal growth factor (EGF) endocytosis of mouse melanoma cells. Representative photomicrographs of Rlip-depleted B16-F0 and B16-F10 cells showing the inhibition of EGF-pHrodo endocytosis. […] Rlip was depleted by treating cells with Rlip-antisense, Rlip-shRNA, or 10 µM 2HF for 24 h as described in Materials and Methods section 4.8. Photographs were taken at identical exposures using 200× magnification.
# Figure 4 Flow cytometry analysis of EGF-pHrodo endocytosis in control or Rlip depleted B16-F0 cells. Flow cytometry analysis of B16-F0 cells was performed 24 h after Rlip depletion by shRNA, RLIP76-antisense, or treatment with […] 2HF. Cells were stained with EGF-pHrodo. EGF-pHrodo-positive cells as shown on scatter plots were identified and gated based on forward and side scatter properties. The PE channel was used for red fluorescence to measure EGF-pHrodo positivity. […] Each flow cytometry analysis plot is a representative example of three independent experiments. […]
# The effect of Rlip knockdown/depletion by shRNA, RLIP76-antisense (R508), or 2HF on endocytosis was studied in B16 melanoma cell lines. […] Slides were analyzed using a fluorescence microscope (Olympus America, Melville, NY, USA). […]
# The effect of Rlip knockdown on endocytosis was further checked by flow cytometry. […] After 24 h, cells were trypsinized, washed with cold PBS, and counted. […]
smiles,measurement,setting,value
"O=C1CC(c2ccccc2O)Oc2ccccc21 (stereo not shown) [2HF, 2′-hydroxyflavanone]",Active caspase 3 band intensity ratio to control (normalized against β-Actin),"[1]; SK-Mel-24, 50 µM 2HF",0.9
same,C-terminal cleaved PARP~89kDa band intensity ratio to control (normalized against β-Actin),"[1]; SK-Mel-24, 50 µM 2HF",0.8
same,Caspase 9 band intensity ratio to control (normalized against β-Actin),"[1]; SK-Mel-24, 50 µM 2HF",1.2
same,N-terminal cleaved PARP~24kDa band intensity ratio to control (normalized against β-Actin),"[1]; SK-Mel-24, 50 µM 2HF",0.8
same,PARP-1 band intensity ratio to control (normalized against β-Actin),"[1]; SK-Mel-24, 50 µM 2HF",0.7
same,Procaspase 3 band intensity ratio to control (normalized against β-Actin),"[1]; SK-Mel-24, 50 µM 2HF",0.8
same,RAL BP-1 band intensity ratio to control (normalized against β-Actin),"[1]; SK-Mel-24, 50 µM 2HF",0.4
same,Raf-1 band intensity ratio to control (normalized against β-Actin),"[1]; SK-Mel-24, 50 µM 2HF",1.7
same,TNF-α band intensity ratio to control (normalized against β-Actin),"[1]; SK-Mel-24, 50 µM 2HF",0.4
same,p-PDGFR-β band intensity ratio to control (normalized against β-Actin),"[1]; SK-Mel-24, 50 µM 2HF",0.7
same,Active caspase 3 band intensity ratio to control (normalized against β-Actin),"[1]; SK-Mel-24, 100 µM 2HF",1.1
same,C-terminal cleaved PARP~89kDa band intensity ratio to control (normalized against β-Actin),"[1]; SK-Mel-24, 100 µM 2HF",0.9
same,Caspase 9 band intensity ratio to control (normalized against β-Actin),"[1]; SK-Mel-24, 100 µM 2HF",0.5
same,N-terminal cleaved PARP~24kDa band intensity ratio to control (normalized against β-Actin),"[1]; SK-Mel-24, 100 µM 2HF",0.4
same,PARP-1 band intensity ratio to control (normalized against β-Actin),"[1]; SK-Mel-24, 100 µM 2HF",0.1
same,Procaspase 3 band intensity ratio to control (normalized against β-Actin),"[1]; SK-Mel-24, 100 µM 2HF",0.5
same,RAL BP-1 band intensity ratio to control (normalized against β-Actin),"[1]; SK-Mel-24, 100 µM 2HF",0.1
same,p-PDGFR-β band intensity ratio to control (normalized against β-Actin),"[1]; SK-Mel-24, 100 µM 2HF",0.4
same,EGF-pHrodo endocytosis (fluorescence microscopy),[2],completely blocked
